Reference: patent publication US20110229571A1, “Pharmaceutical Compositions Comprising a Selective I1 Imidazoline Receptor Agonist and an Angiotensin II Receptor Blocker” (Abbott Products GmbH, priority 2003, published 2011)

Columns and labels:
[1] = test system: 2K1C (two-kidney one-clip) hypertensive rats; test: Blood pressure and heart rate (tail cuff) of two-kidney one-clip renal hypertensive rats after oral treatment; assay type: in vivo, rat; conditions: for diastolic blood pressure (DBP) / mean blood pressure (MBP) / systolic blood pressure (SBP) / heart rate: Mox 1 mg/kg, Epro 3 mg/kg or both; for diastolic blood pressure (DBP) / mean blood pressure (MBP) / systolic blood pressure (SBP): mean ± SE of 12 animals; for heart rate: n 12; for maximal decrease in the diastolic blood pressure / maximal decrease in the systolic blood pressure: maximal effect 2 hours after oral administration, moxonidine 1 mg/kg or eprosartan 3 mg/kg; for effect on blood pressure (in words): oral, moxonidine 1 mg/kg, eprosartan 3 mg/kg or both
Description: The “two-kidney one-clip” technique results in renal ischemia and in the development of hypertension. In the rat, this technique produces chronic changes, similar to those in human beings with unilateral renal artery stenosis. 2K1C rats represent a pressure overload model of hypertension, characterized by the activation of the renin-angiotensin aldosterone system (RAAS) and peripheral vasoconstriction. This model is widely used as a high renin model of hypertension for the evaluation of angiotensin converting enzyme (ACE) inhibitors and angiotensin receptor antagonists (ARBs). Animals: Male Sprague-Dawley CFY rats were used. Animals were fed commercial laboratory rat food pellet and allowed to drink tap water ad libitum throughout the experiments. Two-kidney one-clip hypertension: Under ether anesthesia an incision was made on the right side of the dorsalvertebrocostal angle. After light exterioration of the right kidney a silver clip was placed on the renal artery, close to its origin from the aorta. The left kidney was not disturbed. Measurement of blood pressure and heart rate: Blood pressure and heart rate were measured by the tail cuff method (Model 229, IITC Inc., CA, USA) from the 1st week after clipping the renal artery, once a week for 6 weeks. At the time of blood pressure measurements the animals were minimally warmed to an ambient temperature of 29° C. using a thermostated warming chamber. Experimental protocol: Animals developing stable hypertension during the 6-week-study period were used for the drug treatments. 12 animals with established hypertension were used for each treatment group as follows: • Vehicle • Moxonidine 1 mg/kg • Eprosartan 3 mg/kg • Moxonidine 1 mg/kg+Eprosartan 3 mg/kg The animals were treated orally and the blood pressure was measured 30 min, 1 h, 2 h and 4 hours there after. Different treatments were applied randomly during the day. Statistical analysis: Parameters were expressed as mean±standard error of the mean (SE) and after analysis of variance were compared by means of the modified ‘t’-statistical method of Wallenstein et al. [Wallenstein S et al. (1980) Circ. Res. 47:1-9].

[2] = test system: Zucker rats; test: Oral glucose tolerance test in Zucker rats after 3 weeks of treatment; assay type: in vivo, rat
Experimental: The effect of a combined administration of Moxonidine as an example for a selective Imidazoline I1 receptor agonist and Eprosartan as an example for an Angiotensin II At1 receptor antagonist was analyzed by measuring their influence on plasma glucose level in “Zucker rats”. The “Zucker rat” is a model of impaired glucose tolerance and is widely used to analyze compound effects on glucose tolerance. Animals: Male Zucker rats (HsdOla fa/fa) from Harlan were used in the experiments. The animals were fed commercial lab chow and had unlimited access to tap water throughout the experiment. Experimental protocol: Animals were treated for 3 weeks with either vehicle or the active compounds. Moxonidine was applied via the drinking water. Eprosartan was administered daily into the stomach via a cannula. Ten animals were used in each of the following treatment groups: • Vehicle • Moxonidine 1 mg/kg • Moxonidine 1 mg/kg+Eprosartan 3 mg/kg • Moxonidine 1 mg/kg+Eprosartan 30 mg/kg • Moxonidine 1 mg/kg+Eprosartan 100 mg/kg At the end of the drug treatment period the animals were subjected to an oral glucose tolerance test. Animals were given a solution containing 2 g glucose via a cannula into the stomach. Blood samples were drawn before and at 30, 60, 90, and 120 minutes after the glucose load by tail vein cannulation and analyzed for plasma glucose levels. Statistical analysis: Parameters were expressed as mean±standard error of the mean (SE) and after analysis of variance were compared by means of T-Test.

[3] = 30 min after oral administration

| SMILES | diastolic blood pressure (DBP) [1, 3] [mmHg] | mean blood pressure (MBP) [1, 3] [mmHg] | systolic blood pressure (SBP) [1, 3] [mmHg] | heart rate [1, 3] [beats/min] | diastolic blood pressure (DBP) ([1]; 1 h after oral administration) [mmHg] | mean blood pressure (MBP) ([1]; 1 h after oral administration) [mmHg] | systolic blood pressure (SBP) ([1]; 1 h after oral administration) [mmHg] | heart rate ([1]; 1 h after oral administration) [beats/min] | diastolic blood pressure (DBP) ([1]; 2 h after oral administration) [mmHg] | mean blood pressure (MBP) ([1]; 2 h after oral administration) [mmHg] | systolic blood pressure (SBP) ([1]; 2 h after oral administration) [mmHg] | heart rate ([1]; 2 h after oral administration) [beats/min] | diastolic blood pressure (DBP) ([1]; 4 h after oral administration) [mmHg] | mean blood pressure (MBP) ([1]; 4 h after oral administration) [mmHg] | systolic blood pressure (SBP) ([1]; 4 h after oral administration) [mmHg] | heart rate ([1]; 4 h after oral administration) [beats/min] | maximal decrease in the diastolic blood pressure [1] [%] | maximal decrease in the systolic blood pressure [1] [%] | effect on blood pressure (in words) [1] | other results |
| --- | --- | --- | --- | --- | --- | --- | --- | --- | --- | --- | --- | --- | --- | --- | --- | --- | --- | --- | --- | --- |
| CCCCc1ncc(/C=C(\Cc2cccs2)C(=O)O)n1Cc1ccc(C(=O)O)cc1 [Eprosartan] | 111 ± 2.8 | 117 ± 2.8 | 131 ± 2.8 | 370 ± 6.9 | 109 ± 2.3 | 116 ± 2.5 | 131 ± 3.1 | 375 ± 7.4 | 98 ± 4.8 | 105 ± 4.6 | 119 ± 4.5 | 378 ± 4.3 | 106 ± 6.6 | 112 ± 6.6 | 125 ± 6.1 | 376 ± 5.2 | 21 | 19 | significantly decreased the blood pressure |  |
| COc1nc(C)nc(Cl)c1NC1=NCCN1 [Moxonidine, 4-Chloro-5-[(4,5-dihydro-1H-imidazol-2-yl)-amino]-6-methoxy-2-methylpyrimidine] | 118 ± 3.1 | 124 ± 3.2 | 136 ± 3.6 | 383 ± 5.3 | 110 ± 3.3 | 117 ± 2.6 | 130 ± 2.1 | 376 ± 6.7 | 100 ± 4.8 | 107 ± 4.2 | 122 ± 3.5 | 368 ± 5.9 | 109 ± 3.8 | 116 ± 3.5 | 129 ± 3.1 | 384 ± 6.0 | 19 | 16 | significantly decreased the blood pressure | plasma glucose level ([2]; 0 min (before glucose challenge), 1 mg/kg Mox, mean ± SE of 10 animals): 97 ± 6 mg/dL; plasma glucose AUC (area under the curve) ([2]; 0-120 min after glucose challenge, 1 mg/kg Mox): 24960 ± 1268 mg·min/dL; plasma glucose level ([2]; 30 min after glucose challenge, 1 mg/kg Mox): 240 ± 15 mg/dL; plasma glucose level ([2]; 60 min after glucose challenge, 1 mg/kg Mox): 211 ± 15 mg/dL; plasma glucose level ([2]; 90 min after glucose challenge, 1 mg/kg Mox): 221 ± 11 mg/dL; plasma glucose level ([2]; 120 min after glucose challenge, 1 mg/kg Mox): 224 ± 14 mg/dL; effect on plasma glucose levels after oral glucose challenge (in words) ([2]; Moxonidine 1 mg/kg alone or with Eprosartan 3, 30, 100 mg/kg): significant reduction in plasma glucose levels at 60 and 90 minutes |
